{
  "source": "patent US12156858B2",
  "about": "“Pharmaceutical compositions comprising levodopa, a dopamine decarboxylase inhibitor and a COMT inhibitor and method of administration thereof” (InTrance Medical Systems Inc., priority 2014, dated 2024)",
  "origin": "cited, not measured here",
  "conditions": "intake of levodopa alone",
  "data": [
    {"smiles": "N[C@@H](Cc1ccc(O)c(O)c1)C(=O)O", "note": "[Levodopa, (−)-L-α-amino-β-(3,4-dihydroxybenzene) propanoic acid]", "values": [
      {"measurement": "share metabolized to dopamine before levodopa reaches the brain", "result": "more than 90%"}
    ]}
  ]
}
